In brackets after ≈: the same amount, converted by molar mass. Several values for one entry are separate records, joined by “and”; a condition that tells them apart may be missing. Equal entries are not always repeated. Where two headings read alike, the source gives them in different places.
How the values were obtained:
E. coli MC4100 [1] = assay: Bactericidal effect in the uptake assay (CFU counts); type: cell-based, Escherichia coli; conditions: for dCFU (Δlog10 CFU/mL, count with drug minus growth control): time 0 h, single replicates; for dCFU (Δlog10 CFU/mL, count with drug minus growth control) / bacterial inhibition, less than the control without antibiotic: 200 μM drug; for bacterial inhibition, less than the control without antibiotic: 4-h time point, MHBCA, inoculum 8.5 log10 CFU/mL
From the text: The bactericidal effect determined at each time point was the difference in the concentration of bacteria in the assay tube with antibiotic and that measured in the growth control tube without drug (ΔLog10 CFU/mL). The normal distribution of the data was verified with the Shapiro–Wilk test and the statistical analysis was a comparison of repeated measures ANOVA (*p ≤ 0.05, **p ≤ 0.01, ***p ≤ 0.001) between each time point relatively to the 0-h time point.

OXA-98 = OXA-98 (Acinetobacter baumannii, UniProt D0C7W4); assay: biochemical; set-up: species or system A. baumannii ATCC 19606
Method: (§1) Enzyme concentrations were 20 nM for AmpC and SHV-1, and 50 nM for OXA-98. Quartz cuvette (FireflySci Inc., Northport, NY) with 1 cm length path and 2 mm inside width was used with an Ultrospec 2100 Pro (Biochrom, Harvard Bioscience Inc., USA) to acquire the kinetic measures. […] The following extinction coefficients (Δε) and wavelengths (λ) were used:
(§2) The steady-state parameters (Km and Kcat) were determined by plotting the initial velocity against substrate concentrations (Michaelis–Menten curve). The Kcat was measured using the Vmax (μM/sec) divided by the total enzyme concentration and the catalytic efficiency was further calculated (Kcat/Km). SHV-1 parameters were determined with three Michaelis–Menten curves of at least seven substrate concentrations, while OXA-98 and AmpC were duplicates of curves of at least seven substrate concentrations. […] Initial velocities were measured at room temperature (25 °C). The Vmax and Km were calculated using least squares fit regression in GraphPad version 10.2.2. Ki was measured using a derivative of IC50 with an adaptation of the Cheng–Prusoff equation[55]. […] The corrected Ki was calculated using this formula: Kicorrected=Ki(observed)/1+S/KmNCF

E. coli MC4100 [2] = assay: MIC; type: cell-based, Escherichia coli; conditions: for MIC in combination with PAβN: + 25 µg/mL PAβN
Method: All bacterial strains (see description and sources Table S1) were stored at −80 °C, and grown on tryptone soya agar (TSA) at 35 °C. The iron-deprived (ID)-MHBCA (cation-adjusted Muller-Hinton Broth, Becton Dickinson, Mississauga, ON, Canada) medium was prepared as reported by refs. [21],[50]. Briefly, MHBCA was treated with 10% Chelex® 50-100 mesh (Sigma) and stirred for 6 h at room temperature. The resin was removed by filtration. Divalent Ca^2+ (CaCl2), Mg^2+ (MgCl2), and Zn^2+(ZnSO4), were then added in the iron-depleted medium at 22, 12, and 1 μg/ml respectively. Finally, the pH was adjusted to 7.3, and the medium was sterilized with a 0.2-μm filter. Regular MHBCA (i.e., not treated with Chelex®) was used to compare the inhibitory activity of conjugates in iron-sufficient conditions.
Minimal inhibitory concentrations (MICs) were performed using a broth microdilution technique according to the Clinical and Laboratory Standards Institute (CLSI) guidelines. MICs were determined in MHBCA and in ID-MHBCA. To check the impact of β-lactamases, MICs in the presence of a β-lactamase inhibitor were also determined. The inhibitor was homogenized at 2X the final concentration and added to the bacterial inoculum just before distributing cells into the wells containing the drug dilutions. The final concentration of each inhibitor was 4 μg/mL for clavulanic acid (tested against K. pneumoniae) and 200 μg/mL for 3-aminophenylboronic acid (tested against P. aeruginosa and A. baumannii).

[3] = Antibiotic stability in 4-h bacterial culture supernatant; type: physicochemical; conditions: for additional decrease of residual concentration in used supernatants versus medium: 4-h supernatants with and without iron, after 3 h; for percentage of antibiotic degradation in [bacterial supernatant]: 3 h
Method: For analysis, the determined concentration in the supernatant was adjusted for the degradation of the molecules measured in the stability control tests for each time point. The final net antibiotic concentration in the medium was calculated at each time point by adding the concentration caused by degradation to the concentration of the test antibiotic measured in the assay tubes containing bacteria. […] A second control was added for the β-lactam LOR and CEF to verify the impact of metabolic waste on the stability of the molecules. The supernatant from the 4-h growth control without antibiotic was collected by filtration 0.2 µm. LOR and CEF were then added to the filtrated supernatant at 200 µM, and degradation was measured after 3 h.

SHV-1 = SHV-1 (Klebsiella pneumoniae, UniProt P0AD64); assay: biochemical
Method: as §1, §2

PBP5 [4] = target: PBP5 (Klebsiella pneumoniae, UniProt A6T693); assay: Membrane PBP binding assay, competition with Bocillin FL; conditions: K. pneumoniae ATCC 13883 membranes
Method: (§3) Membrane extracts containing PBPs were obtained as described above. Briefly, all species were grown in 1 L of TSB until the OD600 reached 0.9. The washed pellet was incubated with lysozyme (400 μg/mL), DNase (10 μg/mL) RNase(10 μg/mL) and anti-protease cocktail (200 mg/20 mL). Lysis was done with a French press (20,000 psi) and membrane protein were pelleted by ultracentrifugation steps (100,000 × g). The pellet was suspended in a minimal volume (300–500 μL) of KP 0.05 M buffer at pH 7. The protein concentration in the membrane preparations was determined with the Micro BCA TM Protein Assay Kit (Thermo Fisher Scientific, Rockford, IL) using bovine serum albumin as a standard.
(§4) The PBP binding assay was done as described previously[36],[56],[57]. For each antibiotic concentration tested, a quantity of 25 to 40 μg of membrane preparation was used as the source of PBPs, depending on the species. […]
(§5) To be able to visualize labeled PBPs after electrophoresis, gels were rinsed in water and fixed in a solution of 50% methanol and 7% acetic acid for 30 min. […] To obtain quantifiable data, the software Quantity One 1D analysis was used (version 4.6.6; Bio-Rad Laboratories, Richmond, CA). The volume (intensity × constant area) of each PBP was measured. […] The PBP profiles were confirmed, and the PBP numbering were determined using published data and individual molecular weights. […]

PBP5 [5] = target: PBP5 (Escherichia coli, UniProt P0AEB2); assay: as above; conditions: E. coli MC4100 membranes
Method: as §3, §4, §5

[6] = Escherichia coli, MC4100, MC4100, ID-MHBCA (−), read-out: MIC
[7] = Escherichia coli, MC4100, MC4100, MHBCA (+), without PAβN, read-out: MIC
[8] = Escherichia coli, MC4100, MHBCA (+), without PAβN, read-out: MIC
[9] = MC4100, efflux pump mutant table S5, read-out: MIC
[10] = supernatant of 4-hour culture in ID-MHBCA

SHV-1, sequence (P0AD64 23-286): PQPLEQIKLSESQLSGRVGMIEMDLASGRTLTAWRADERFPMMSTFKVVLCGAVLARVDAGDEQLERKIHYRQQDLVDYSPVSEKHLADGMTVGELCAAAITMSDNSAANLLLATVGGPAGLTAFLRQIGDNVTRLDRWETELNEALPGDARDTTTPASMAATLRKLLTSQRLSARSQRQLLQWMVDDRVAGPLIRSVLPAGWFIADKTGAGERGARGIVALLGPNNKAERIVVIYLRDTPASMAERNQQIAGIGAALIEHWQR
OXA-98, sequence (D0C7W4 entry or part of it): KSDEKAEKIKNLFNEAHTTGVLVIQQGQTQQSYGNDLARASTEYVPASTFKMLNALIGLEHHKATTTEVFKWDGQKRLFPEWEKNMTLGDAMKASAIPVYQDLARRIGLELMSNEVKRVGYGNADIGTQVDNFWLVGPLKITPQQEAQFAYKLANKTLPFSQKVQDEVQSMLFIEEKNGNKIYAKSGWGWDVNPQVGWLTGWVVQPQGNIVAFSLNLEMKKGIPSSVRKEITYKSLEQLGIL
PBP5 (Klebsiella pneumoniae, UniProt A6T693), sequence (A6T693 entry or part of it): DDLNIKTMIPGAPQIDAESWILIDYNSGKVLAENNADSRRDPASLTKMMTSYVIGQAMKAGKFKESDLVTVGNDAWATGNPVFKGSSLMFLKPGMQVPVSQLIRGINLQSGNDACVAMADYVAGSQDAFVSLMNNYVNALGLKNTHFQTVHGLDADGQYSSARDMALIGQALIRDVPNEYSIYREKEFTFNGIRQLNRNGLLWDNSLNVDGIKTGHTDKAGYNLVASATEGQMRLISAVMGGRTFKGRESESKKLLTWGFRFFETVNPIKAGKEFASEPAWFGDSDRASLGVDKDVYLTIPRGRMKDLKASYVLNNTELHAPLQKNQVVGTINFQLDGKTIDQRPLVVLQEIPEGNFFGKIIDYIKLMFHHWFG
PBP5 (Escherichia coli, UniProt P0AEB2), sequence (P0AEB2 30-403): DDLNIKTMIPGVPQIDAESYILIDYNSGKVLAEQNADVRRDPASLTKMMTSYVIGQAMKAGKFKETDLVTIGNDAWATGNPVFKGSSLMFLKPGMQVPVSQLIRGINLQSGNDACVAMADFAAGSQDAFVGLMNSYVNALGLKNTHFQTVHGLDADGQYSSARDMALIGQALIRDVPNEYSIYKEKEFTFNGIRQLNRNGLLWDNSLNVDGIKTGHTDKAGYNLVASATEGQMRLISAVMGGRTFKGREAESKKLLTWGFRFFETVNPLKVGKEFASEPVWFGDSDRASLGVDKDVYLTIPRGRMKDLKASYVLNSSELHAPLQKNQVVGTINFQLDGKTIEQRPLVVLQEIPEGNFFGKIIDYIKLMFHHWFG

| SMILES | dCFU (Δlog10 CFU/mL, count with drug minus growth control) (E. coli MC4100 [1]; ID FALSE (MHBCA)) | dCFU (Δlog10 CFU/mL, count with drug minus growth control) (E. coli MC4100 [1]; ID TRUE (ID-MHBCA)) | hydrolysis by OXA-98 (OXA-98) | MIC (E. coli MC4100 [2]; [6]) [µM] | MIC (E. coli MC4100 [2]; [7]) [µM] | MIC (E. coli MC4100 [2]; [8]) [µM] | MIC ratio unconjugated β-lactam/conjugate (E. coli MC4100 [2]; MC4100, ID-MHBCA) | MIC in combination with PAβN (E. coli MC4100 [2]; MC4100, MHBCA) [µM] | MIC (E. coli MC4100 [2]; [9]) [µM] | bacterial inhibition, less than the control without antibiotic (E. coli MC4100 [1]) | additional decrease of residual concentration in used supernatants versus medium [3] [%] | percentage of antibiotic degradation in [bacterial supernatant] [3, 10] [%] | MIC ratio unconjugated β-lactam/conjugate (E. coli MC4100 [2]; MC4100, MHBCA) | also measured |
| --- | --- | --- | --- | --- | --- | --- | --- | --- | --- | --- | --- | --- | --- | --- |
| O=C(CCC(=O)N(CCCCNC(=O)c1cccc(O)c1O)CCCNC(=O)c1cccc(O)c1O)NCCCCCN(O)C(=O)CCCC(=O)NC(C(=O)NC1C(=O)N2C(C(=O)O)=C(Cl)CSC12)c1ccccc1 (centres unmarked) [MCEF, mixed ligand bis-catechol-mono-hydroxamate-cefaclor] | 0.157 and -0.07022 and 0.01569 and -0.00717 | 0.0557 and -0.2291 and -0.2621 | No hydrolysis | > 200 | 6.3 to 25 (≈ 6.81 to 27 µg/mL) | 6.3 (≈ 6.81 µg/mL) | < 0.016 | > 200 | 6.3 (≈ 6.81 µg/mL) |  |  |  |  |  |
| N[C@@H](C(=O)N[C@@H]1C(=O)N2C(C(=O)O)=C(Cl)CC[C@H]12)c1ccccc1 [LOR, loracarbef, reference compound] | 0.02669 and 0.4114 and -0.0313 | -0.2509 and -0.1259 and -0.06378 | No hydrolysis |  |  |  |  | 6.3 | 3.1 (≈ 1.08 µg/mL) | ~ 1.2 log10 CFU/mL | ≤ 12 | 11 |  | SHV-1 Kcat (SHV-1; n = 3): 7.4 ± 0.5 s⁻¹; Km (SHV-1; read-out: SHV-1 Km, Michaelis–Menten curves, n = 3, 25 °C): 29 ± 9 µM; MIC (E. coli MC4100 [2]; MC4100, ID-MHBCA (−), read-out: MIC): 3.1 µM (≈ 1.08 µg/mL); MIC (E. coli MC4100 [2]; MC4100, MHBCA (+), without PAβN, read-out: MIC): 3.1 µM (≈ 1.08 µg/mL); IC50 (PBP5 [4]): > 50 µM; IC50 (PBP5 [5]): > 50 µM |
| O=C(CN(CCCCNC(=O)c1cccc(O)c1O)C(=O)c1cccc(O)c1O)NC(C(=O)NC1C(=O)N2C(C(=O)O)=C(Cl)CCC12)c1ccccc1 (centres unmarked) [BLOR, bis-catechol (azotochelin)-loracarbef] | 0.04788 and 0.3837 and 0.3931 | -0.2509 and -0.1259 and 0.08749 and -0.2979 and -0.04259 | No hydrolysis | 0.006 (≈ 0.0045 µg/mL) | 0.012 (≈ 0.009 µg/mL) | 0.024 (≈ 0.018 µg/mL) | 512 | 0.2 | 0.024 (≈ 0.018 µg/mL) | ~ 1.2 log10 CFU/mL |  |  | 256 | dCFU (E. coli MC4100 [1]; ID FALSE (MHBCA), time 8 h): -3.459; dCFU (E. coli MC4100 [1]; ID FALSE (MHBCA), time 10 h): -3.652; dCFU (E. coli MC4100 [1]; ID FALSE (MHBCA), time 24 h): -3.754 |
| N[C@@H](C(=O)N[C@@H]1C(=O)N2C(C(=O)O)=C(Cl)CS[C@H]12)c1ccccc1 [CEF, cefaclor, reference compound] | 0.07784 and -0.144 and -0.0313 | -0.00308 and -0.2509 and -0.2737 | No hydrolysis | 3.1 (≈ 1.14 µg/mL) | 6.3 (≈ 2.32 µg/mL) |  |  | 13 |  |  | ≤ 12 | 32 |  | percentage of antibiotic degradation in [bacterial supernatant] ([3]; supernatant of 4-hour culture in MHBCA): 36% |
| CC1(C)SC2C(NC(=O)C(NC(=O)CN(CCCCNC(=O)c3cccc(O)c3O)C(=O)c3cccc(O)c3O)c3ccccc3)C(=O)N2C1C(=O)O (centres unmarked) [BAMP, bis-catechol (azotochelin)-ampicillin] |  |  |  | 0.024 (≈ 0.018 µg/mL) |  |  | 512 | 0.2 |  |  |  |  | 256 | Ki (OXA-98): 499 ± 4 µM; Ki (SHV-1): 184 ± 14 µM; MIC (E. coli MC4100 [2]; Escherichia coli, MC4100): 0.05 µM (≈ 0.0375 µg/mL) |
